“Also recorded” adds a separate entry of the source. Where two headings read alike, the source gives them in different places.
Assays:
[1] = test system: 92TH019 (E-R5); experiment: p24 Gag production inhibition, PHA-PBMs, subtype E isolate 92TH019; assay type: cell-based, HIV-1; conditions: Human immunodeficiency virus 1, read-out: IC50 against 92TH019 (E-R5)
Experimental: Drug susceptibility assay. The susceptibility of HIV-1LAI, HIV-2EHO, HIV-2ROD, to various drugs and the cytotoxicity of those drugs was determined by using the MTT assay. Briefly, MT-2 cells (2×10^4/mL) were exposed to 100 TCID50s (50% tissue culture infectious doses) of HIV-1LAI, HIV-2EHO, or HIV-2ROD in the presence or absence of various concentrations of drugs in 96-well microculture plates and were incubated at 37° C. for 7 days. After 100 μL of the medium was removed from each well, 3-(4,5-dimethylthiazol-2-yl)-2,5-diphenyltetrazolium bromide (MTT) solution (10 μL, 7.5 mg/mL in phosphate-buffered saline) was added to each well in the plate, followed by incubation at 37° C. for 4 hours. […] All assays were performed in duplicate or triplicate. To determine the sensitivity of HIV-1Ba-L, HIV-1ERS104 pre, and clinical multi-drug-resistant HIV-1 isolates and different subtypes of HIV-1 isolates to drugs, phytohemagglutinin-activated peripheral blood mononuclear cells (PHA-PBMs; 10^6/mL) were exposed to 50 TCID50 (50% tissue infectious dose) of each HIV-1 isolate and cultured in the presence or absence of various concentrations of drugs in 10-fold serial dilutions in 96-well microtiter culture plates. To determine the drug susceptibility of certain laboratory HIV-1 strains (HIV-1NL4-3), MT-4 cells were used as target cells. MT-4 cells (10^5/mL) were exposed to 100 TCID50 of wild type HIV-1NL4-3 and PI-resistant HIV-1NL4-3 in the presence or absence of various concentrations of drugs and were incubated at 37° C. On day 7 of culture, the supernatant was harvested and the amount of p24 Gag protein was determined by using a fully automated chemiluminescent enzyme immunoassay system (Lumipulse F; Fujirebio Inc., Tokyo, Japan) (22). […] All assays were performed in duplicate or triplicate.
The IC50 values were determined by using PHA-PBMs as target cells and the inhibition of p24 Gag protein production by each drug was used as an endpoint. All assays were conducted in duplicate, and the data shown represent mean values (±1 standard deviations) derived from the results of two or three independent experiments.

[2] = target: T1, CFP- and YFP-tagged HIV-1 protease subunits (Human immunodeficiency virus type 1 group M subtype B, UniProt P12497); assay type: cell-based; conditions: Cos-7 cells; for CFP A/B ratio (CFP fluorescence after/before photobleaching): ratio <1 = dimerization blocked
T1 construct: expressed in transfected cells; host or cells: Cos-7
Experimental: After 72 hr, cultured cells were examined in the FRET-HIV-1 assay system using confocal microscopy Fluoview FV500 confocal laser scanning microscope, and CFP^A/B were determined and plotted. […] The FRET efficiency was determined following acceptor photobleaching as previously described (Bastiaens et al., EMBO 1996; Siegel et al., Science's stke 2000; Firulli et al., Nature genetics, 2005; Szczesna et al., JBC 2003). Dequenching of the donor CFP by selective photobleaching of the acceptor YFP was performed by first obtaining YFP and CFP images at the same focal plane, followed by illuminating for 3 min the same image at wavelength of 488 nm with a laser power set at the maximum intensity to bleach YFP and re-capturing the same CFP and YFP images. The changes in the CFP and YFP fluorescence intensity in the images of selected regions were examined and quantified using Olympus FV500 Image software system. Background values were obtained from the regions where no cells were present and were subtracted from the values for the cells examined in all calculations. For each chimeric protein, the data were obtained from at least three independent experiments. FRET efficiency was determined using the formula: ET=(1−(IDA/ID))×100, where IDA and ID represent the steady-state donor fluorescence in the presence and absence of the acceptor, respectively. Digitized image data obtained from the experiment were prepared for presentation using Photoshop 6.0 (Adobe systems, Mountain View, Calif.). Ratios of intensities of ECFP fluorescence after photobleaching to ECFP fluorescence prior to photobleaching were determined. The ratios of more than 1 indicate that dimerization of CFP- and YFP-tagged protease subunits occurred and those of less than 1 indicate that dimerization was blocked by the test agent.
Generation of FRET-based HIV-1 expression assay. The basic concepts of the intermolecular fluorescence resonance energy transfer (FRET)-based HIV-1-expression assay (FRET-HIV-1 assay) are shown in FIG. 7. Within a plasmid (pHIV-1NL4-3), which encodes a full-length molecular infectious HIV-1 clone, the gene encoding a cyan fluorescent donor protein (CFP) was attached to the downstream end (C-terminus) of the gene encoding an HIV-1 protease subunit through the flexible linker added (five alanines), generating pHIV-1NL4-3/CFP (FIG. 7A). Within the other plasmid (pHIV-1NL4-3), the gene encoding a yellow fluorescent acceptor protein (YFP) was attached to the downstream end of protease-encoding gene in the same manner, generating pHIV-1NL4-3/YFP. Both CFP and YFP were designed to have phenylalanine and proline in the connection with reverse transcriptase so that the protease is cleaved from reverse transcriptase when two subunits dimerize and the dimerized protease acquires enzymatic activity. […] A focused laser beam excitation of CFP (triggered by Helium-Cadmium laser) results in rapid energy transfer to YFP, and most of the fluorescence photons are emitted by YFP (Miyawaki et al. Nature 388(6645):882-887 (1997)). If the dimerization is blocked, the average distance between CFP and YFP becomes larger and the energy transfer rate is decreased and the fraction of photons emitted by YFP is lowered.
In order to interpret the energy transfer efficiency quantitatively, an acceptor photobleaching technique was used, in which the change in CFP emission quenching is measured by comparing the value before and after selectively photobleaching YFP, which prevents problems associated with variable expression levels.

Row | Structure (SMILES) | IC50 [1] [nM] | inhibition of protease dimerization ([2]; 1 μM) | CFP A/B ratio (CFP fluorescence after/before photobleaching) ([2]; 1 μM) | inhibition of protease dimerization ([2]; 10 μM)
1 | CC(C)CN(C[C@@H](O)[C@H](Cc1ccccc1)NC(=O)O[C@H]1CCOC1)S(=O)(=O)c1ccc(N)cc1 [APV, Amprenavir] | 21 ± 6 |  |  | 
2 | CC(C)(C)NC(=O)[C@@H]1CN(Cc2cccnc2)CCN1C[C@@H](O)C[C@@H](Cc1ccccc1)C(=O)N[C@H]1c2ccccc2C[C@H]1O [IDV, indinavir] | 21 ± 1 |  |  | 
3 | COC(=O)N[C@H](C(=O)N[C@@H](Cc1ccccc1)[C@@H](O)CN(Cc1ccc(-c2ccccn2)cc1)NC(=O)[C@@H](NC(=O)OC)C(C)(C)C)C(C)(C)C [ATV, Atazanavir] | 2.7 ± 0.1 | None | 1.25±0.12 | none of these 4 PIs inhibited protease dimerization
4 | CC(C)(C)NC(=O)[C@@H]1C[C@@H]2CCCC[C@@H]2CN1C[C@@H](O)[C@H](Cc1ccccc1)NC(=O)[C@H](CC(N)=O)NC(=O)c1ccc2ccccc2n1 [SQV, Saquinavir] | 3 ± 0.1 | None | 1.11±0.15 | none of these 4 PIs inhibited protease dimerization
5 | Cc1c(O)cccc1C(=O)N[C@@H](CSc1ccccc1)[C@H](O)CN1C[C@H]2CCCC[C@H]2C[C@H]1C(=O)NC(C)(C)C [NFV, Nelfinavir] | 29 ± 4 | None |  | none of these 4 PIs inhibited protease dimerization
6 | CC(C)CN(CC(O)C(Cc1ccccc1)NC(=O)OC1COC2OCCC12)S(=O)(=O)c1ccc2c(c1)OCO2 (stereo not shown) [GRL-98065] | 0.3 ± 0.1 | dimerization was effectively blocked; also recorded: disrupt protease dimerization |  | 
7 | CC(C)c1nc(CN(C)C(=O)N[C@H](C(=O)N[C@@H](Cc2ccccc2)C[C@H](O)[C@H](Cc2ccccc2)NC(=O)OCc2cncs2)C(C)C)cs1 [RTV, ritonavir] | 30 ± 9 | None |  | 
8 | Cc1cccc(C)c1OCC(=O)N[C@@H](Cc1ccccc1)[C@@H](O)C[C@H](Cc1ccccc1)NC(=O)[C@H](C(C)C)N1CCCNC1=O [LPV, lopinavir] | 3.3 ± 0.5 | None |  | 

Reference: patent US9808527B2, “Methods and compositions for treating HIV infections” (priority 2006, dated 2017)
